Source: patent US9523691B2, “Use of the olfactomedin-4 protein (OLFM4) in colorectal cancer diagnosis” (INSTITUT DE CANCEROLOGIE DE L'OUEST, priority 2011, dated 2016)

System: wild type HCT116 cells
Test: Clonogenic cell survival assay, OLFM4 added to the medium with genotoxic treatment
Format: cell-based, human
Settings: 10 days
Description: The influence of OLFM4 following genotoxic treatments in HCT116 OLFM4 inducible cells was evaluated by clonogenic assay. Cells were incubated with 50 ng/ml of doxycyclin, and then 24 hr later treated with oxaliplatin or sn38 at the indicated concentration for 10 days. The colonies were stained with crystal violet and counted by QuantityOne software (Biorad). B. OLFM4 overexpressed in COS7 cells, was added at approximately 3 ng/ml to oxaliplatin and sn38 treatment in the wild type HCT116 cells for 10 days. The colonies were stained and count as above. The histograms shown are representative of three individual experiments.
The human colon adenocarcinoma cell line HCT116 (American Type Culture Collection, ATCC) were maintained in antibiotic-free RPMI 1640 medium (Lonza). Cultures were supplemented with 10% fetal bovine serum. […]
HCT116 stable OLFM4 cells were seeded at 300 cells into 6 well cell culture plates with RPMI 1640 medium supplement with 3% fetal bovine serum and incubated at 37° C. in a 5% CO2 atmosphere. […] The number of colonies exceeding 50 cells was visualized with a Bio-Rad Chemi Doc XRS Imaging device and counted using Quantity One imaging software (Bio-Rad). The survival fraction was determined as the ratio of the number of colonies observed without doxycycline to the number of cells with doxycycline, adjusted to the plating efficiency.

## OLFM4: Secreted N-glycosylated protein of 510 residues, overexpressed in COS7 cells and added to culture medium
OLFM4 overexpressed in COS7 cells added at approximately 3 ng/ml to oxaliplatin treatment
  resistance to oxaliplatin (colony survival, clonogenic assay): promotes resistance
OLFM4 overexpressed in COS7 cells added at approximately 3 ng/ml to sn38 treatment
  resistance to sn38 (colony survival, clonogenic assay): promotes resistance
